Test results: ChEMBL document CHEMBL1201862, “PubChem BioAssay data set” (2004)
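Method: 48-hour compound exposure of cells in 96-well plates, five concentrations, linear interpolation of endpoints. GI50: concentration for 50% inhibition of growth.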 Calls of active or inactive are those of the source. Cut-off read from the data, not from the text of the source: active = GI50 up to about 1.1 µM and inactive = higher.

Key:
Assay in all cases: DTP human tumour cell line panel, 48 h
EKVX = tested on: EKVX
HOP-62 = tested on: HOP-62
IGROV-1 = tested on: IGROV-1
SNB-19 = tested on: SNB-19
HCC 2998 = tested on: HCC 2998
HCT-116 = tested on: HCT-116
NCI-H23 = tested on: NCI-H23
T47D = tested on: T47D
SW-620 = tested on: SW-620
LOX IMVI = tested on: LOX IMVI
UACC-257 = tested on: UACC-257
NCI-H226 = tested on: NCI-H226
SF-295 = tested on: SF-295
OVCAR-5 = tested on: OVCAR-5
RPMI-8226 = tested on: RPMI-8226
NCI-H460 = tested on: NCI-H460
786-0 = tested on: 786-0
DU-145 = tested on: DU-145
KM12 = tested on: KM12
PC-3 = tested on: PC-3
SN12C = tested on: SN12C
OVCAR-4 = tested on: OVCAR-4
UO-31 = tested on: UO-31
SR = tested on: SR
HCT-15 = tested on: HCT-15
SNB-75 = tested on: SNB-75
U-251 = tested on: U-251
A498 = tested on: A498
M14 = tested on: M14
A549 = tested on: A549
K562 = tested on: K562
SK-MEL-5 = tested on: SK-MEL-5
MDA-MB-231 = tested on: MDA-MB-231
CAKI-1 = tested on: CAKI-1
MDA-N = tested on: MDA-N
MOLT-4 = tested on: MOLT-4
HOP-92 = tested on: HOP-92
MCF7 = tested on: MCF7
OVCAR-8 = tested on: OVCAR-8
SK-MEL-2 = tested on: SK-MEL-2
CCRF-CEM = tested on: CCRF-CEM
RXF 393 = tested on: RXF 393
UACC-62 = tested on: UACC-62
SF-539 = tested on: SF-539
COLO 205 = tested on: COLO 205
SK-MEL-28 = tested on: SK-MEL-28
BT-549 = tested on: BT-549
ACHN = tested on: ACHN
NCI/ADR-RES = tested on: NCI/ADR-RES
MDA-MB-435 = tested on: MDA-MB-435
OVCAR-3 = tested on: OVCAR-3
NCI-H522 = tested on: NCI-H522
HL-60 = tested on: HL-60
TK-10 = tested on: TK-10
SF-268 = tested on: SF-268
SK-OV-3 = tested on: SK-OV-3
Hs-578T = tested on: Hs-578T
Malme-3M = tested on: Malme-3M
HT-29 = tested on: HT-29

CCN(CC)CC1CN=C(N)O1 (stereo not drawn)
GI50 (EKVX): > 100 µM (inactive)
GI50 (HOP-62): > 100 µM (inactive)
GI50 (IGROV-1): > 100 µM (inactive)
GI50 (SNB-19): > 100 µM (inactive)
GI50 (HCC 2998): > 100 µM (inactive)
GI50 (HCT-116): > 100 µM (inactive)
GI50 (NCI-H23): > 100 µM (inactive)
GI50 (T47D): > 100 µM (inactive)
GI50 (SW-620): > 100 µM (inactive)
GI50 (LOX IMVI): > 100 µM (inactive)
GI50 (UACC-257): > 100 µM (inactive)
GI50 (NCI-H226): > 100 µM (inactive)
GI50 (SF-295): > 100 µM (inactive)
GI50 (OVCAR-5): > 100 µM (inactive)
GI50 (RPMI-8226): > 100 µM (inactive)
GI50 (NCI-H460): > 100 µM (inactive)
GI50 (786-0): > 100 µM (inactive)
GI50 (DU-145): > 100 µM (inactive)
GI50 (KM12): > 100 µM (inactive)
GI50 (PC-3): > 100 µM (inactive)
GI50 (SN12C): > 100 µM (inactive)
GI50 (OVCAR-4): > 100 µM (inactive)
GI50 (UO-31): > 100 µM (inactive)
GI50 (SR): > 100 µM (inactive)
GI50 (HCT-15): > 100 µM
GI50 (SNB-75): > 100 µM (inactive)
GI50 (U-251): > 100 µM (inactive)
GI50 (A498): > 100 µM (inactive)
GI50 (M14): > 100 µM (inactive)
GI50 (A549): > 100 µM (inactive)
GI50 (K562): > 100 µM (inactive)
GI50 (SK-MEL-5): > 100 µM (inactive)
GI50 (MDA-MB-231): > 100 µM (inactive)
GI50 (CAKI-1): > 100 µM (inactive)
GI50 (MDA-N): > 100 µM (inactive)
GI50 (MOLT-4): > 100 µM (inactive)
GI50 (HOP-92): > 100 µM (inactive)
GI50 (MCF7): > 100 µM (inactive)
GI50 (OVCAR-8): > 100 µM (inactive)
GI50 (SK-MEL-2): > 100 µM (inactive)
GI50 (CCRF-CEM): > 100 µM (inactive)
GI50 (RXF 393): > 100 µM (inactive)
GI50 (UACC-62): > 100 µM (inactive)
GI50 (SF-539): > 100 µM (inactive)
GI50 (COLO 205): > 100 µM (inactive)
GI50 (SK-MEL-28): > 100 µM (inactive)
GI50 (BT-549): > 100 µM (inactive)
GI50 (ACHN): > 100 µM (inactive)
GI50 (NCI/ADR-RES): > 100 µM (inactive)
GI50 (MDA-MB-435): > 100 µM (inactive)
GI50 (OVCAR-3): > 100 µM (inactive)

C[N+](C)(C)CC(=O)N/N=C\c1c(O)ccc2ccccc12
GI50 (NCI-H522): 16.2 µM (inactive)
GI50 (EKVX): 35.7 µM (inactive)
GI50 (HOP-62): 26.7 µM (inactive)
GI50 (IGROV-1): 20 µM (inactive)
GI50 (SNB-19): 63.4 µM (inactive)
GI50 (HCT-116): 42.6 µM (inactive)
GI50 (NCI-H23): 36 µM (inactive)
GI50 (T47D): 32.9 µM (inactive)
GI50 (SW-620): 63.5 µM (inactive)
GI50 (LOX IMVI): 32.7 µM (inactive)
GI50 (UACC-257): 18.7 µM (inactive)
GI50 (HL-60): 14.2 µM (inactive)
GI50 (NCI-H226): 21 µM (inactive)
GI50 (SF-295): 46.1 µM (inactive)
GI50 (TK-10): 28.2 µM (inactive)
GI50 (OVCAR-5): 57.1 µM (inactive)
GI50 (RPMI-8226): 32.1 µM (inactive)
GI50 (NCI-H460): 18.1 µM (inactive)
GI50 (786-0): 37.8 µM (inactive)
GI50 (DU-145): 23.8 µM (inactive)
GI50 (KM12): 32.4 µM (inactive)
GI50 (PC-3): 37.6 µM (inactive)
GI50 (SN12C): 32.2 µM (inactive)
GI50 (OVCAR-4): 32.2 µM (inactive)
GI50 (SF-268): 10.7 µM (inactive)
GI50 (UO-31): 33.3 µM (inactive)
GI50 (SK-OV-3): 34.8 µM (inactive)
GI50 (SR): 33.2 µM (inactive)
GI50 (HCT-15): 27.7 µM
GI50 (SNB-75): 16.8 µM (inactive)
GI50 (U-251): 21.4 µM (inactive)
GI50 (A498): 29.5 µM (inactive)
GI50 (Hs-578T): 14.4 µM (inactive)
GI50 (M14): 31.5 µM (inactive)
GI50 (A549): > 100 µM (inactive)
GI50 (K562): 31.9 µM (inactive)
GI50 (SK-MEL-5): 16.2 µM (inactive)
GI50 (MDA-MB-231): 92.9 µM (inactive)
GI50 (CAKI-1): 40.9 µM (inactive)
GI50 (MDA-N): 42.9 µM (inactive)
GI50 (MOLT-4): 9.08 µM (inactive)
GI50 (HOP-92): 13.2 µM (inactive)
GI50 (MCF7): 59.7 µM (inactive)
GI50 (OVCAR-8): 26.3 µM (inactive)
GI50 (SK-MEL-2): 28.3 µM (inactive)
GI50 (CCRF-CEM): 27.8 µM (inactive)
GI50 (RXF 393): 20.9 µM (inactive)
GI50 (UACC-62): 28.2 µM (inactive)
GI50 (SF-539): 31.5 µM (inactive)
GI50 (Malme-3M): 11.9 µM (inactive)
GI50 (HT-29): > 100 µM (inactive)
GI50 (COLO 205): > 100 µM (inactive)
GI50 (SK-MEL-28): 48.2 µM (inactive)
GI50 (ACHN): 32.7 µM (inactive)
GI50 (NCI/ADR-RES): 33.7 µM (inactive)
GI50 (MDA-MB-435): 39.3 µM (inactive)
GI50 (OVCAR-3): 35.9 µM (inactive)

CC(C)CCNC(=O)c1ccc(CNC(=O)/C=C/c2ccc(OCc3ccccc3)cc2)cc1
GI50 (HOP-62): > 100 µM (inactive)
GI50 (SNB-19): > 100 µM (inactive)
GI50 (HCC 2998): > 100 µM (inactive)
GI50 (HCT-116): > 100 µM (inactive)
GI50 (NCI-H23): > 100 µM (inactive)
GI50 (T47D): > 100 µM (inactive)
GI50 (SW-620): > 100 µM (inactive)
GI50 (LOX IMVI): > 100 µM (inactive)
GI50 (UACC-257): > 100 µM (inactive)
GI50 (NCI-H226): 39.9 µM (inactive)
GI50 (SF-295): > 100 µM (inactive)
GI50 (OVCAR-5): > 100 µM (inactive)
GI50 (RPMI-8226): > 100 µM (inactive)
GI50 (NCI-H460): > 100 µM (inactive)
GI50 (786-0): > 100 µM (inactive)
GI50 (DU-145): > 100 µM (inactive)
GI50 (KM12): > 100 µM (inactive)
GI50 (PC-3): > 100 µM (inactive)
GI50 (SN12C): > 100 µM (inactive)
GI50 (OVCAR-4): > 100 µM (inactive)
GI50 (SF-268): > 100 µM (inactive)
GI50 (UO-31): > 100 µM (inactive)
GI50 (SK-OV-3): > 100 µM (inactive)
GI50 (SR): > 100 µM (inactive)
GI50 (HCT-15): > 100 µM
GI50 (SNB-75): > 100 µM (inactive)
GI50 (U-251): > 100 µM (inactive)
GI50 (A498): > 100 µM (inactive)
GI50 (M14): > 100 µM (inactive)
GI50 (A549): > 100 µM (inactive)
GI50 (K562): > 100 µM (inactive)
GI50 (SK-MEL-5): > 100 µM (inactive)
GI50 (MDA-MB-231): > 100 µM (inactive)
GI50 (CAKI-1): > 100 µM (inactive)
GI50 (MDA-N): > 100 µM (inactive)
GI50 (MOLT-4): > 100 µM (inactive)
GI50 (HOP-92): > 100 µM (inactive)
GI50 (MCF7): > 100 µM (inactive)
GI50 (OVCAR-8): > 100 µM (inactive)
GI50 (SK-MEL-2): > 100 µM (inactive)
GI50 (CCRF-CEM): > 100 µM (inactive)
GI50 (RXF 393): > 100 µM (inactive)
GI50 (UACC-62): > 100 µM (inactive)
GI50 (HT-29): > 100 µM (inactive)
GI50 (COLO 205): > 100 µM (inactive)
GI50 (SK-MEL-28): > 100 µM (inactive)
GI50 (ACHN): > 100 µM (inactive)
GI50 (NCI/ADR-RES): > 100 µM (inactive)
GI50 (MDA-MB-435): > 100 µM (inactive)
GI50 (OVCAR-3): > 100 µM (inactive)
